The values below come from publication PMC10824666 (Nature Cancer, 2023).

Where two headings read alike, the source gives them in different places.

Holding throughout (experiment): biochemical
Holding throughout (design): Eurofins DiscoverX kinase panel, competitive binding assay at 1 uM, percent of DMSO control
Common to all, as to conditions: competitive binding, percent of DMSO control

One assay concerns the target LIMK1 (Homo sapiens, UniProt P53667). The method in brief: (§1)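 Competitive binding assay across a 96-kinase panel with KIF18A compounds at 1 µM; values given as percentage of control (POC), single experiment.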
Another assay concerns the target T1, PRKG1 (Homo sapiens, UniProt Q13976).
T1 sequence (Q13976 1-671): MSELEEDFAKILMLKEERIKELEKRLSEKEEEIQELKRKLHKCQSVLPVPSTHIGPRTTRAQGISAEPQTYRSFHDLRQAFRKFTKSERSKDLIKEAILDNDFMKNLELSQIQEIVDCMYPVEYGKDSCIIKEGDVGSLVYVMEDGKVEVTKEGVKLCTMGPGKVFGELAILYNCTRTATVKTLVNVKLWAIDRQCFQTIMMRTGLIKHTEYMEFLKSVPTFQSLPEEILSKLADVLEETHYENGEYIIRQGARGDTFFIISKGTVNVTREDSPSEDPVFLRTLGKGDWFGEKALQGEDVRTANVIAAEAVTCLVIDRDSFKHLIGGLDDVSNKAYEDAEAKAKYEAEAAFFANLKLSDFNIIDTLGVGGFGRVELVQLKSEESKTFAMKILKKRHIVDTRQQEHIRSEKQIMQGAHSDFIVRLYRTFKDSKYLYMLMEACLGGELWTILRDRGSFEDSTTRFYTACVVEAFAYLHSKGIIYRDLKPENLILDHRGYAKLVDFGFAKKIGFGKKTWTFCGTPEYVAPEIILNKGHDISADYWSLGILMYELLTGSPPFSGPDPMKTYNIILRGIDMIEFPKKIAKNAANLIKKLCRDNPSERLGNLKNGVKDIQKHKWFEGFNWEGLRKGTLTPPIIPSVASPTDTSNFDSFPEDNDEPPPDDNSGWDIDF
In short, it runs like this: as §1

The target of the next assay is T2, RSK 1 (Homo sapiens, UniProt Q15418).
T2 construct: gene RPS6KA1
The method in brief: as §1

A further assay addresses RPS6KB1 (Homo sapiens, UniProt P23443). In short, it runs like this:
as §1

The next assay has as its target MAP3K9 (Homo sapiens, UniProt P80192). The method in brief: as §1
Where [1] appears, read: read-out: Kinome Profiling performed by Eurofins DiscoverX / AM-0277, 1.0 µM / POC.
[2] abbreviates: read-out: Kinome Profiling performed by Eurofins DiscoverX / AM-1882, 1.0 µM / POC.
The mark [3] stands for this setting: read-out: Kinome Profiling performed by Eurofins DiscoverX / AM-5308, 1.0 µM / POC.

RPS6KB1, sequence (P23443 whole entry): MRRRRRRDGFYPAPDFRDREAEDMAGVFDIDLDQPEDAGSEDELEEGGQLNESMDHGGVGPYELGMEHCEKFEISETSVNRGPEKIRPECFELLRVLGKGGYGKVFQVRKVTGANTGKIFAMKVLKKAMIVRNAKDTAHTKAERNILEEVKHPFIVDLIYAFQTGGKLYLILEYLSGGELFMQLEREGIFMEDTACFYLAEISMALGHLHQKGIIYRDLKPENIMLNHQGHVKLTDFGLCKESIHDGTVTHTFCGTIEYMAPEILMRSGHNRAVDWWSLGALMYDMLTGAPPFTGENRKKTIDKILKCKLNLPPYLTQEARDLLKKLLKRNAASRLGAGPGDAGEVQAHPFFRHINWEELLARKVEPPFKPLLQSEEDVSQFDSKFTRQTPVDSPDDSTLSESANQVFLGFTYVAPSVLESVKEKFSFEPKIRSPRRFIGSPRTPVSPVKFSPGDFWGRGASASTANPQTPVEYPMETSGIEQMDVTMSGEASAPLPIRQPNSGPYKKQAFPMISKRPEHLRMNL
T2 sequence (Q15418 whole entry): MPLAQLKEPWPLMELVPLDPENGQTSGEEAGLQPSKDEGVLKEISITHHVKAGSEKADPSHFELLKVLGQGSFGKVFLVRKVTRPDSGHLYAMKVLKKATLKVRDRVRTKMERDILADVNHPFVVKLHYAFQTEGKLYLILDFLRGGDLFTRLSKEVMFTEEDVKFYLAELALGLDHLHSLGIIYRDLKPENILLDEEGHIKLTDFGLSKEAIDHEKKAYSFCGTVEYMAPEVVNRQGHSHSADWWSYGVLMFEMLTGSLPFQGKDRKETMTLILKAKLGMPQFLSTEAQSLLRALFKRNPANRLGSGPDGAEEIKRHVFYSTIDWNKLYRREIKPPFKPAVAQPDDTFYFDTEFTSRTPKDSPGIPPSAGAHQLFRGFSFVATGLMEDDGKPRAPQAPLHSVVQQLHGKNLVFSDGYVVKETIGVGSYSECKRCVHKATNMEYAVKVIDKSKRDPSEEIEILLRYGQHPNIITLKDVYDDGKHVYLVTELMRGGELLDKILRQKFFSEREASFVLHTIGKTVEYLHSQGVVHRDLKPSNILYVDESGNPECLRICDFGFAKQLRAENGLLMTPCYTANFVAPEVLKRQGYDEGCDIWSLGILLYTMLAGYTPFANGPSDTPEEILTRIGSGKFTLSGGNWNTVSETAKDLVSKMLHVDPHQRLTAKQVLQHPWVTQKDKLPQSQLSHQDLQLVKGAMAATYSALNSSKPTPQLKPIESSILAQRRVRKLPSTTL
LIMK1, sequence (P53667 whole entry): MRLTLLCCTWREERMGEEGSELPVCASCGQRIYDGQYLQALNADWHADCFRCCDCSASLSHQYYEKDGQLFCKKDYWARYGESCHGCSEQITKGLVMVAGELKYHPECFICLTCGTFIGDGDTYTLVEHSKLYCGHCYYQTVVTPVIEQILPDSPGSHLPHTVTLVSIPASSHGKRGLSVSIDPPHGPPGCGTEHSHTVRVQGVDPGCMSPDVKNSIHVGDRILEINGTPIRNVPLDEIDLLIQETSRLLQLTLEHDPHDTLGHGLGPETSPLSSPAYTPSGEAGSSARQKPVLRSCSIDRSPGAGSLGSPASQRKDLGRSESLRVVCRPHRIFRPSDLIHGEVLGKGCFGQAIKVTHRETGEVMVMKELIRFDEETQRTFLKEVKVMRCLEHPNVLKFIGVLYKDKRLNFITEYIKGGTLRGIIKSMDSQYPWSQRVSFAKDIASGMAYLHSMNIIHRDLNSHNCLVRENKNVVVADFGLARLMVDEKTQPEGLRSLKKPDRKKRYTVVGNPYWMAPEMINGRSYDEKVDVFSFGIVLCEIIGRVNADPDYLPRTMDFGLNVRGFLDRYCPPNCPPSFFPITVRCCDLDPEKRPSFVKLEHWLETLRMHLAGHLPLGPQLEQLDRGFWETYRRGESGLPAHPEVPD
MAP3K9, sequence (P80192 whole entry): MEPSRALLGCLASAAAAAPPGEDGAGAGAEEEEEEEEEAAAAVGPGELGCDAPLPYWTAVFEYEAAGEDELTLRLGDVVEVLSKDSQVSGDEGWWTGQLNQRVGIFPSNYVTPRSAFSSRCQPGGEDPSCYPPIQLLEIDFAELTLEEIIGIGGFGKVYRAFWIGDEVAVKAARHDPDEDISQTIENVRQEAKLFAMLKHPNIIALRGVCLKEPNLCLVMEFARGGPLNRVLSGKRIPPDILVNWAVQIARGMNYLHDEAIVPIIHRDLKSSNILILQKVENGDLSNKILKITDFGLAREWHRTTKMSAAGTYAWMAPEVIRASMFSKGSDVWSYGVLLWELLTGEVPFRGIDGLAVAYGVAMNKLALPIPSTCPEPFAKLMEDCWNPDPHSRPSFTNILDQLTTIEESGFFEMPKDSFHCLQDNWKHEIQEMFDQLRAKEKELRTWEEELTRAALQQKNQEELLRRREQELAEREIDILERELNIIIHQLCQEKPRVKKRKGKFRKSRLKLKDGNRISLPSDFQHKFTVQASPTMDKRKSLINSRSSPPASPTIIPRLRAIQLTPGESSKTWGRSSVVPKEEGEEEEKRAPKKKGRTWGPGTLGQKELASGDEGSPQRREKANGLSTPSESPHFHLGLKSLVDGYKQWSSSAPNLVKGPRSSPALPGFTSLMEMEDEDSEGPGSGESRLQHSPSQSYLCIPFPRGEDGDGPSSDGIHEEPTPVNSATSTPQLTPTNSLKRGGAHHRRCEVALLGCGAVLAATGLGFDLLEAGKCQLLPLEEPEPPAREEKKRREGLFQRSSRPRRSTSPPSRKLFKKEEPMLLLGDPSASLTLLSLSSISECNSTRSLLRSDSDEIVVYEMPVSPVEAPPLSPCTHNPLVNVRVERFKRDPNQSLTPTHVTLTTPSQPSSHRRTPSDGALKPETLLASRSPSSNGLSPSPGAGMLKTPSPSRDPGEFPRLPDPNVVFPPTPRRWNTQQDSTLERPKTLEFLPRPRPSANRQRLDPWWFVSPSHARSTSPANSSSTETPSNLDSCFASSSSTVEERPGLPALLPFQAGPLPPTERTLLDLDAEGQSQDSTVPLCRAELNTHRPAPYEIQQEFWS

In the case of `CC(C)(CO)Nc1ccc(C(=O)Nc2cccc(S(=O)(=O)C3CCCC3)c2)c(N2CCC3(CC2)CC3)n1` [AM-0277], the remaining activity at 1 µM on LIMK1 (setting [1]) was determined as 95%; on PRKG1 (setting [1]), 87%; at RSK 1 (setting [1]), 100%; on RPS6KB1 (setting [1]), 100%; at MAP3K9 (setting [1]), 100%.
In the case of `CC(C)(C)NS(=O)(=O)c1cccc(NC(=O)c2ccc(S(=O)(=O)NC(C)(C)C)cc2N2CCC3(CC2)CC3)c1` [AM-1882], the remaining activity at 1 µM on LIMK1 (setting [2]) came out at 87%; on PRKG1 (setting [2]) it was 89%; at RSK 1 (setting [2]), 100%; at RPS6KB1 (setting [2]), 61%; at MAP3K9 (setting [2]), 100%.
As to `C[C@@H]1CN(c2cccc(NC(=O)c3ccc(NS(=O)(=O)CCO)cc3N3CCC4(CC3)CC4)n2)CCO1` [AM-5308], the remaining activity at 1 µM at LIMK1 (setting [3]) amounted to 92.5%; at PRKG1 (setting [3]) it was 100%; at RSK 1 (setting [3]), 91.5%; on RPS6KB1 (setting [3]), 94.5%; on MAP3K9 (setting [3]), 95%.
